Source: patent US8017612B2, “Piperazine compound and use thereof as a HCV polymerase inhibitor” (priority 2006, dated 2011)

Tests used:
[1] = target: T1, HCV polymerase (NS5B) type 1a (Hepatitis C virus genotype 1a, UniProt P26664); assay: Assay of enzyme (HCV polymerase) inhibitory activity, type 1a enzyme; type: biochemical, HCV type 1a (cloned from the blood of patients); settings: HCV polymerase inhibitory activity IC50, 1a, type 1a enzyme
T1 construct: made in house; host or cells: Escherichia coli (by the 'similar method' of the 1b enzyme)
Method in brief: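 NS5B Δ47 C-term His6 (type 1a, 1.5 μg/ml); substrate RNA 5 μg/ml; ATP/GTP/CTP 50 μM, UTP 2 μM + [5,6-3H]UTP; Tris pH 7.5, MgCl2 5 mM; 25° C, 60 min. TCA/pyrophosphate stop, GF/B filter, scintillation. IC50 vs no-compound control.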

[2] = target: T2, HCV polymerase (NS5B) type 1b (Hepatitis C virus genotype 1b, UniProt P26663); assay: Assay of enzyme (HCV polymerase) inhibitory activity, type 1b enzyme; type: biochemical, HCV BK strain (type 1b); settings: HCV polymerase inhibitory activity IC50, 1b, type 1b enzyme
T2 construct: a region encoding NS5B (J Virol 1991 March, 65(3), 1105-13, 544 amino acids after deletion of 47 amino acids on the C-terminal); 6xHis (C); made in house; host or cells: Escherichia coli
Method in brief: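 Rxn: NS5B 1b (BK, ΔC47, His6) 0.5 μg/ml; substrate RNA 5 μg/ml; ATP/GTP/CTP 50 μM, UTP 2 μM + [5,6-3H]UTP; 20 mM Tris pH 7.5, 5 mM MgCl2, 50 mM NaCl, 1 mM EDTA/DTT. 25 °C, 60 min. Stop with TCA/pyrophosphate, filter, scintillation count; IC50 vs. untreated.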

SMILES	IC50 [1]	IC50 [2]
CCC(F)(F)c1ccc(CNC(=O)[C@H]2CN(c3cnc4cncnc4n3)CCN2S(=O)(=O)c2ccc3c(c2)CCC(CC(=O)O)CC3)cc1 (stereo partly drawn) [Example 729, (2-{(R)-2-[4-(1,1-difluoro-propyl)-benzylcarbamoyl]-4-pteridin-7-yl-piperazine-1-sulfonyl}-6,7,8,9-tetrahydro-5H-benzocyclohepten-7-yl)-acetic acid]	< 100 nM	< 100 nM
O=C(NCc1ccc(-c2ccccn2)s1)[C@H]1CN(c2cnc3cncnc3n2)CCN1S(=O)(=O)c1ccc(OC(F)(F)F)cc1 [Example 730, (R)-4-pteridin-7-yl-1-(4-trifluoromethoxy-benzenesulfonyl)-piperazine-2-carboxylic acid (5-pyridin-2-yl-thiophen-2-ylmethyl)-amide]	< 100 nM	< 100 nM
CCC(F)(F)c1ccc(CNC(=O)[C@H]2CN(c3cnc4cncnc4n3)CCN2S(=O)(=O)c2ccc(-c3ccccc3OCC(=O)O)cc2)cc1 [Example 731, (4′-{(R)-2-[4-(1,1-difluoro-propyl)-benzylcarbamoyl]-4-pteridin-7-yl-piperazine-1-sulfonyl}-biphenyl-2-yloxy)-acetic acid]	< 100 nM	< 100 nM
CCC(F)(F)c1ccc(CNC(=O)[C@H]2CN(c3cnc4cncnc4n3)CCN2S(=O)(=O)c2ccc(-c3cccc(OCC(=O)O)c3)cc2)cc1 [Example 732, (4′-{(R)-2-[4-(1,1-difluoro-propyl)-benzylcarbamoyl]-4-pteridin-7-yl-piperazine-1-sulfonyl}-biphenyl-3-yloxy)-acetic acid]	< 100 nM	< 100 nM
CCC(F)(F)c1ccc(CNC(=O)[C@H]2CN(C(=O)CNc3cccnc3)CCN2S(=O)(=O)c2ccc(OC(F)(F)F)cc2)cc1 [Example 733, (R)-4-[2-(pyridin-3-ylamino)-acetyl]-1-(4-trifluoromethoxy-benzenesulfonyl)-piperazine-2-carboxylic acid 4-(1,1-difluoro-propyl)-benzylamide]	100 to 1000 nM	100 to 1000 nM
CCC(F)(F)c1ccc(CNC(=O)[C@H]2CN(C(=O)CNc3ccn(C)n3)CCN2S(=O)(=O)c2ccc(OC(F)(F)F)cc2)cc1 [Example 734, (R)-4-[2-(1-methyl-1H-pyrazol-3-ylamino)-acetyl]-1-(4-trifluoromethoxy-benzenesulfonyl)-piperazine-2-carboxylic acid 4-(1,1-difluoro-propyl)-benzylamide]	100 to 1000 nM	100 to 1000 nM
CCC(F)(F)c1ccc(CNC(=O)[C@H]2CN(c3cnc4cnccc4n3)CCN2S(=O)(=O)c2ccc(C(F)(F)F)cc2)cc1 [Example 735, (R)-4-pyrido[3,4-b]pyrazin-2-yl-1-(4-trifluoromethyl-benzenesulfonyl)-piperazine-2-carboxylic acid 4-(1,1-difluoro-propyl)-benzylamide]	< 100 nM	< 100 nM
CCC(F)(F)c1ccc(CNC(=O)[C@H]2CN(c3cnc4cnccc4n3)CCN2S(=O)(=O)c2ccc(N(C)C)cc2)cc1 [Example 736, (R)-1-(4-dimethylamino-benzenesulfonyl)-4-pyrido[3,4-b]pyrazin-2-yl-piperazine-2-carboxylic acid 4-(1,1-difluoro-propyl)-benzylamide]	< 100 nM	< 100 nM
CCC(F)(F)c1ccc(CNC(=O)[C@H]2CN(c3cnc4cncnc4n3)CCN2S(=O)(=O)c2ccc(Br)s2)cc1 [Example 737, (R)-1-(5-bromo-thiophene-2-sulfonyl)-4-pteridin-7-yl-piperazine-2-carboxylic acid 4-(1,1-difluoro-propyl)-benzylamide]	< 100 nM	< 100 nM
CCC(F)(F)c1ccc(CNC(=O)[C@H]2CN(c3cnc4cncnc4n3)CCN2S(=O)(=O)c2cc3ccccc3s2)cc1 [Example 738, (R)-1-(benzo[b]thiophene-2-sulfonyl)-4-pteridin-7-yl-piperazine-2-carboxylic acid 4-(1,1-difluoro-propyl)-benzylamide]	< 100 nM	< 100 nM
CCC(F)(F)c1ccc(CNC(=O)[C@H]2CN(c3nc4cccnc4s3)CCN2S(=O)(=O)c2ccc(OC(F)(F)F)cc2)cc1 [Example 739, (R)-4-thiazolo[5,4-b]pyridin-2-yl-1-(4-trifluoromethoxy-benzenesulfonyl)-piperazine-2-carboxylic acid 4-(1,1-difluoro-propyl)-benzylamide]	< 100 nM	< 100 nM
CCC(F)(F)c1ccc(CNC(=O)[C@H]2CN(c3ccc4cnccc4n3)CCN2S(=O)(=O)c2ccc(OC(F)(F)F)cc2)cc1 [Example 740, (R)-4-[1,6]naphthyridin-2-yl-1-(4-trifluoromethoxy-benzenesulfonyl)-piperazine-2-carboxylic acid 4-(1,1-difluoro-propyl)-benzylamide]	< 100 nM	< 100 nM
CCC(F)(F)c1ccc(CNC(=O)[C@H]2CN(c3cnc4c(Cl)cccc4n3)CCN2S(=O)(=O)c2ccc(OC(F)(F)F)cc2)cc1 [Example 741, (R)-4-(5-chloro-quinoxalin-2-yl)-1-(4-trifluoromethoxy-benzenesulfonyl)-piperazine-2-carboxylic acid 4-(1,1-difluoro-propyl)-benzylamide]	100 to 1000 nM	< 100 nM
CCC(F)(F)c1ccc(CNC(=O)[C@H]2CN(c3cnc4cccc(Cl)c4n3)CCN2S(=O)(=O)c2ccc(OC(F)(F)F)cc2)cc1 [Example 742, (R)-4-(8-chloro-quinoxalin-2-yl)-1-(4-trifluoromethoxy-benzenesulfonyl)-piperazine-2-carboxylic acid 4-(1,1-difluoro-propyl)-benzylamide]	100 to 1000 nM	< 100 nM
CCC(F)(F)c1ccc(CNC(=O)[C@H]2CN(c3cnc4cnccc4n3)CCN2S(=O)(=O)c2ccc(N3CCCC3)cc2)cc1 [Example 743, (R)-4-pyrido[3,4-b]pyrazin-2-yl-1-(4-pyrrolidin-1-yl-benzenesulfonyl)-piperazine-2-carboxylic acid 4-(1,1-difluoro-propyl)-benzylamide]	< 100 nM	< 100 nM
CCC(F)(F)c1ccc(CNC(=O)[C@H]2CN(c3cnc4cncnc4n3)CCN2S(=O)(=O)c2ccc([C@H]3CC[C@H](CC(=O)O)CC3)cc2)cc1 [Example 744, trans-[4-(4-{(R)-2-[4-(1,1-difluoro-propyl)-benzylcarbamoyl]-4-pteridin-7-yl-piperazine-1-sulfonyl}-phenyl)-cyclohexyl]-acetic acid]	< 100 nM	< 100 nM
O=C(NCc1ccc(OC(F)(F)F)cc1)[C@H]1CN(c2cnc3cnccc3n2)CCN1S(=O)(=O)c1ccc(OC(F)(F)F)cc1 [Example 745, (R)-4-pyrido[3,4-b]pyrazin-2-yl-1-(4-trifluoromethoxy-benzenesulfonyl)-piperazine-2-carboxylic acid 4-trifluoromethoxy-benzylamide]	< 100 nM	< 100 nM
CCC(F)(F)c1ccc(CNC(=O)[C@H]2CN(c3cnc4cnccc4n3)CCN2S(=O)(=O)c2ccc(N3CCOCC3)cc2)cc1 [Example 746, (R)-1-(4-morpholin-4-yl-benzenesulfonyl)-4-pyrido[3,4-b]pyrazin-2-yl-piperazine-2-carboxylic acid 4-(1,1-difluoro-propyl)-benzylamide]	< 100 nM	< 100 nM
CCC(F)(F)c1ccc(CNC(=O)[C@H]2CN(c3cnc4cncnc4n3)CCN2S(=O)(=O)c2ccc(OC)cc2)cc1 [Example 747, (R)-1-(4-methoxy-benzenesulfonyl)-4-pteridin-7-yl-piperazine-2-carboxylic acid 4-(1,1-difluoro-propyl)-benzylamide]	< 100 nM	< 100 nM
CCC(F)(F)c1ccc(CNC(=O)[C@H]2CN(c3ccc4nccnc4n3)CCN2S(=O)(=O)c2ccc(OC(F)(F)F)cc2)cc1 [Example 748, (R)-4-pyrido[2,3-b]pyrazin-6-yl-1-(4-trifluoromethoxy-benzenesulfonyl)-piperazine-2-carboxylic acid 4-(1,1-difluoro-propyl)-benzylamide]	< 100 nM	< 100 nM
O=C(NCc1ccc(OC(F)(F)F)cc1)[C@H]1CN(c2cnc3nccnc3n2)CCN1S(=O)(=O)c1ccc(OC(F)(F)F)cc1 [Example 749, (R)-4-pyrazino[2,3-b]pyrazin-2-yl-1-(4-trifluoromethoxy-benzenesulfonyl)-piperazine-2-carboxylic acid 4-trifluoromethoxy-benzylamide]	< 100 nM	< 100 nM
O=C(NCc1ccc(OC(F)(F)F)cc1)[C@H]1CN(c2ccn3ncnc3n2)CCN1S(=O)(=O)c1ccc(OC(F)(F)F)cc1 [Example 750, (R)-4-[1,2,4]triazolo[1,5-a]pyrimidin-5-yl-1-(4-trifluoromethoxy-benzenesulfonyl)-piperazine-2-carboxylic acid 4-trifluoromethoxy-benzylamide]	< 100 nM	< 100 nM
CCC(F)(F)c1ccc(CNC(=O)[C@H]2CN(c3cnc4cnccc4n3)CCN2S(=O)(=O)c2ccc(N3CCCC3=O)cc2)cc1 [Example 751, (R)-1-[4-(2-oxo-pyrrolidin-1-yl)-benzenesulfonyl]-4-pyrido[3,4-b]pyrazin-2-yl-piperazine-2-carboxylic acid 4-(1,1-difluoro-propyl)-benzylamide]	< 100 nM	< 100 nM
